From BindingDB's records for doi:10.1021/jm00004a013 (Solvay Pharma, 1995)

Target: Polyunsaturated fatty acid 5-lipoxygenase (Cavia porcellus)
Test: Inhibitory activity against partially-purified Guinea pig PMN 5-lipoxygenase

IC50: 2.8 µM
SMILES: Cc1ccnc(N2CCN(CCc3c(C)n4c5c(cc(O)cc35)CCC4)CC2)c1 [2-Methyl-1-{2-[4-(4-methyl-pyridin-2-yl)-piperazin-1-yl]-ethyl}-5,6-dihydro-4H-pyrrolo[3,2,1-ij]quinolin-8-ol]
